These are literature values, as cited in patent US6806274B1, “Quinazoline derivatives” (AstraZeneca UK Limited, priority 1999, dated 2004).

The target of the data set is EGF RTK (Homo sapiens, UniProt P00533). Conditions: Bioorganic & Medicinal Chemistry Letters, 1997, 7, 2723-2728.
EGF RTK, sequence (P00533 25-1210): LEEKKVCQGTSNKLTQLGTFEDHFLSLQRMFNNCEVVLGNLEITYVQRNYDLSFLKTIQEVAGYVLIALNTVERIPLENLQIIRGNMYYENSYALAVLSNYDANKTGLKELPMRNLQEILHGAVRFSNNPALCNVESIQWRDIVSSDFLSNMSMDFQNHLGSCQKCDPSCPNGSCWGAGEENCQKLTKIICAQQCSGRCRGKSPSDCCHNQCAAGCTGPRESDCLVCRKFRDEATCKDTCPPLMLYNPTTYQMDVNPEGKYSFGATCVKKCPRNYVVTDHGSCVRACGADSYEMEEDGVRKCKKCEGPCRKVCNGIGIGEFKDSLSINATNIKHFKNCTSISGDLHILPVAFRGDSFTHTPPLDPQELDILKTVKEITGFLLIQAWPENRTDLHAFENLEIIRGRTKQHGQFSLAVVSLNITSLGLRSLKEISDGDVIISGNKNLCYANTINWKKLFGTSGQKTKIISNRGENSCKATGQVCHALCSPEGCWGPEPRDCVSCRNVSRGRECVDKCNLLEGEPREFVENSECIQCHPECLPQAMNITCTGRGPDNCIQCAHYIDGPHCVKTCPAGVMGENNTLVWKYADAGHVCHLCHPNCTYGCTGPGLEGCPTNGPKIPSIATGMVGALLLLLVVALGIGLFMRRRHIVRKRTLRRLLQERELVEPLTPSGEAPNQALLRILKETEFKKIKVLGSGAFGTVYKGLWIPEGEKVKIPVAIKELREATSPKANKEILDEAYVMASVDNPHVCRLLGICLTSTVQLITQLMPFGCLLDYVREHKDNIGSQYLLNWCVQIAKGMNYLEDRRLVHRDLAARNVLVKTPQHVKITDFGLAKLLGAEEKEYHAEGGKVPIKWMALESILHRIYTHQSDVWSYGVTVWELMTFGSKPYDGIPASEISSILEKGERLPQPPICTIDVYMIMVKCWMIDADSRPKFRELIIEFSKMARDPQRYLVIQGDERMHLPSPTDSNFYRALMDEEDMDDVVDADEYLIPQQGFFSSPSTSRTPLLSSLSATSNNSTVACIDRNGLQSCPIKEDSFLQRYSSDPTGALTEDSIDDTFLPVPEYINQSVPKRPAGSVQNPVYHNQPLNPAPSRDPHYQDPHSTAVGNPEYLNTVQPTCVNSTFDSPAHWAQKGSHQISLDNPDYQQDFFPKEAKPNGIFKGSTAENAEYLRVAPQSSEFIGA

Consider `COc1cc2ncnc(NC(=O)Nc3ccccc3)c2cc1OC` [1-(6,7-dimethoxyquinazolin-4-yl)-3-phenylurea], for which the “activity as an EGF RTK inhibitor” value was “inactive”.
